Our source for the IC50, EC50 and Activity values is ChEMBL document CHEMBL5241067, “An insight in anti-malarial potential of indole scaffold: A review” (Eur J Med Chem, 2021).

For series [1], the system named is Plasmodium falciparum. As to the kind of experiment: Antimalarial activity against […] Plasmodium falciparum D6 assessed as growth inhibition. The format is functional, organism-based.
Series [2] deals with Plasmodium falciparum. Briefly: Antimalarial activity against chloroquine-resistant Plasmodium falciparum W2 assessed as growth inhibition. Type of series: functional, organism-based.
The subject of series [3] is Plasmodium falciparum. Briefly: Antiplasmodial activity against Plasmodium falciparum NF54 assessed as growth inhibition. The format is functional, organism-based.
Series [4] concerns Plasmodium falciparum. Briefly: Antiplasmodial activity against Plasmodium falciparum DD2 assessed as growth inhibition. The format is functional, organism-based.
A further series relates to KB. As to the kind of experiment: Cytotoxicity against human KB cells. Type of series: functional. The note with it: read-out: ED50 (the source's name).
The test system of series [5] is Plasmodium falciparum. As to the kind of experiment: Antiplasmodial activity against Plasmodium falciparum. The format is functional, organism-based.
For a further series, the system named is Plasmodium berghei. Briefly: In vivo antimalarial activity against Plasmodium berghei infected in mouse assessed as supression of parasitemia at 20 to 25 mg/kg, po measured for 4 days. The conditions noted are these: dose 20-25 mg/kg, time 4 day. The format is functional.
Series [6] deals with Plasmodium falciparum. As to the kind of experiment: Antiplasmodial activity against multidrug resistant Plasmodium falciparum K1 assessed as growth inhibition. The format is functional, organism-based.
A short description of series [7]: Cytotoxicity against HEK293 cells. Type of series: toxicity, cell-based. The conditions noted are these: human.
For series [8], the system named is Plasmodium falciparum. Briefly: Antiplasmodial activity against multidrug-resistant Plasmodium falciparum assessed as growth inhibition. The format is functional.
The test system of series [9] is Plasmodium falciparum. As to the kind of experiment: Antiplasmodial activity against chloroquine-resistant Plasmodium falciparum DD2 assessed as growth inhibition. The format is functional, organism-based.
Series [10] has as its system Plasmodium falciparum. Briefly: Antiplasmodial activity against chloroquine, pyrimethamine and mefloquine-resistant Plasmodium falciparum assessed as growth inhibition. Type of series: functional, organism-based.

Values after ≈ are worked out from the molar mass of the structure shown.

The IC50 is the concentration needed to halve the response being measured. As for `Cc1cc(-c2cc(-c3ccc(F)cc3)nc(-c3c[nH]c4ccccc34)c2C#N)cc(C)c1C`, the results for the half-inhibitory concentration (IC50) in the series with Plasmodium falciparum [1] and with Plasmodium falciparum [2] were 5400 nM and 2960 nM, respectively.
Regarding `O=C1c2cc(Br)ccc2-n2c1nc1ccc(Cl)cc1c2=O`, the values for the IC50 with Plasmodium falciparum [3] and with Plasmodium falciparum [4] were 36 nM and 123 nM, respectively.
As for `Cc1cc(-c2cc(-c3ccccc3)nc(-c3c[nH]c4ccccc34)c2C#N)cc(C)c1C`, the IC50 in the series with Plasmodium falciparum [1] came to 1600 nM; in the series on Plasmodium falciparum [2] it was 2700 nM.
In the case of `O=C1NCCc2c[nH]c3ccc4c(c23)[C@@H]1[C@H](c1ccc2c(c1)OCO2)O4`, in the series on KB, the EC50 is 23900 nM. In the series with Plasmodium falciparum [5], this molecule had an IC50 of 3400 nM.
In the case of `O=C1c2cc(F)ccc2-n2c1nc1ccccc1c2=O`, the IC50 is 57 nM with Plasmodium falciparum [3] and 100 nM with Plasmodium falciparum [4].
Turning to `Cn1c2c3cc(Br)ccc3nc-2cc2cc(Br)ccc21`, in the series on Plasmodium berghei, the Activity was 89%. The IC50 in the series on Plasmodium falciparum [6] stood at 50 nM.
`CC1(C)[C@H](Cc2[nH]c3ccccc3c2CC[N+](C)(C)O)O[C@]23OC[C@H](O)[C@H]2OC(=O)[C@]13O` yielded an IC50 in series [7] of 80 nM.
As to `N#Cc1c(-c2ccc(F)c(F)c2)cc(-c2ccc(F)cc2)nc1-c1c[nH]c2ccccc12`, the IC50 came out at 6780 nM in the series with Plasmodium falciparum [1] and 3820 nM in the series with Plasmodium falciparum [2].
For `N#Cc1c(-c2ccc(F)c(F)c2)cc(-c2ccc(Br)cc2)nc1-c1c[nH]c2ccccc12`, the figures for the IC50 in the series on Plasmodium falciparum [1] and in the series on Plasmodium falciparum [2] were 6600 nM and 4770 nM, respectively.
As for `N#Cc1c(-c2ccc(F)c(F)c2)cc(-c2ccccc2)nc1-c1c[nH]c2ccccc12`, the values for the IC50 in the series with Plasmodium falciparum [1] and in the series on Plasmodium falciparum [2] were 1560 nM and 1160 nM, respectively.
As to `O=C1c2cc([N+](=O)[O-])ccc2-n2c1nc1cc(Cl)ccc1c2=O`, the 50% inhibitory concentration (IC50) is 33 nM with Plasmodium falciparum [3] and 31 nM in the series on Plasmodium falciparum [4].
For the molecule `N#Cc1c(-c2ccc(F)cc2)cc(-c2ccccc2)nc1-c1c[nH]c2ccccc12`, the results for the IC50 in the series on Plasmodium falciparum [1] and with Plasmodium falciparum [2] were 1470 nM and 2990 nM, respectively.
In the case of `O=C1c2cc(Br)ccc2-n2c1nc1cc(Cl)ccc1c2=O`, the values for the IC50 with Plasmodium falciparum [3] and in the series with Plasmodium falciparum [4] were 36 nM and 238 nM, respectively.
On to `O=C1c2ccccc2-n2c1nc1ccccc1c2=O` [TRYPTANTHRIN], for which the IC50 amounted to 288 nM in the series on Plasmodium falciparum [3], 114 nM in the series on Plasmodium falciparum [9] and 0.069 µg/mL (≈ 0.278 µM) with Plasmodium falciparum [10]. The Activity with Plasmodium falciparum [8] was 100 ng/mL.
